In ChEMBL document CHEMBL5303573, “Mapping human microbiome drug metabolism by gut bacteria and their genes” (Nature, 2019):

Tests used:
[1] = The drug is tested on Salmonella typhimurium strain: LT2 for biotransformation. The drug concentrations were measured before and after a 12-h incubation by liquid-chromatography-coupled mass spectrometry (LC–MS); conditions: salmonella enterica subsp. enterica, 2 µM
Lipase = biological target: T1, Lipase (Bacteroides thetaiotaomicron, UniProt Q8A3J3); experiment: The drug is tested on Bacteroides thetaiotaomicron strain: VPI-5482 for biotransformation. The drug concentrations were measured before and after a 12-h incubation by liquid-chromatography-coupled mass spectrometry (LC–MS); assay type: ADME; set-up: dose 2 uM; conditions: 2 µM
T1 sequence (Q8A3J3 whole entry): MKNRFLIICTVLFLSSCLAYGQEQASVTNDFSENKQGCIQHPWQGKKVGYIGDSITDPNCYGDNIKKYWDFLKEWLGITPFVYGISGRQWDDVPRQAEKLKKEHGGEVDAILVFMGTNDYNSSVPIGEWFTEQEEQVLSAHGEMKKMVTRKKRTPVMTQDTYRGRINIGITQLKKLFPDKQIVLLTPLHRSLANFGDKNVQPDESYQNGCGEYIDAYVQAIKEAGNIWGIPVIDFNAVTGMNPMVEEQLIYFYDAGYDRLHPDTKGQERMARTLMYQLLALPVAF

GDSL-like protein = biological target: T2, GDSL-like protein (Collinsella aerofaciens, UniProt A4E8S4); experiment: The drug is tested on Collinsella aerofaciens strain: ATCC25986 for biotransformation. The drug concentrations were measured before and after a 12-h incubation by liquid-chromatography-coupled mass spectrometry (LC–MS); assay type: ADME; set-up: dose 2 uM; conditions: 2 µM
T2 sequence (A4E8S4 whole entry): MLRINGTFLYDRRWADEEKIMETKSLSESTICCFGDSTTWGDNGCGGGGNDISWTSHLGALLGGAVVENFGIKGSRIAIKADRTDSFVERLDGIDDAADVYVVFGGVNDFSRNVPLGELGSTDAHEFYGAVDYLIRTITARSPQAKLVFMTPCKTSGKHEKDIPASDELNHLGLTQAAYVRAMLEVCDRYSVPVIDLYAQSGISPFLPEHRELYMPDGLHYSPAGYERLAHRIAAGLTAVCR

Esterase = biological target: T3, Esterase (Phocaeicola dorei, UniProt B6W2J6); experiment: (§1) The drug is tested on Bacteroides dorei strain: DSM17855 for biotransformation. The drug concentrations were measured before and after a 12-h incubation by liquid-chromatography-coupled mass spectrometry (LC–MS); assay type: ADME; set-up: dose 2 uM; conditions: 2 µM
T3 sequence (B6W2J6 whole entry): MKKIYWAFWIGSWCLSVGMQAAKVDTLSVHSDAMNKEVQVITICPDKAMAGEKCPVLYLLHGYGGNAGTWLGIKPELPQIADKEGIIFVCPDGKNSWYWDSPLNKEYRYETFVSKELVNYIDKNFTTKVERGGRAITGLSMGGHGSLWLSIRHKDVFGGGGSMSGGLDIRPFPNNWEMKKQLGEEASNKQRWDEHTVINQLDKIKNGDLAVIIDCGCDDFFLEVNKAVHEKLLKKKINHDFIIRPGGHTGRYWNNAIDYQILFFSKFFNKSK

[2] = biological target: T4, Nitroreductase domain-containing protein (Phocaeicola dorei, UniProt B6VU18); experiment: as §1; assay type: ADME; set-up: dose 2 uM; conditions: 2 µM
T4 sequence (B6VU18 whole entry): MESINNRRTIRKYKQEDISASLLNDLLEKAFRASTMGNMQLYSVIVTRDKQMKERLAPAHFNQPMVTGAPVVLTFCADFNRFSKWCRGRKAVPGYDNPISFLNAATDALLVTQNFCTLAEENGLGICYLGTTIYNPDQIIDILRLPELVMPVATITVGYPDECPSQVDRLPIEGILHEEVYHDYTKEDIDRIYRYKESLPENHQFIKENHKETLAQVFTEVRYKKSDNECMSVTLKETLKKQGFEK

[3] = biological target: T5, SGNH hydrolase-type esterase domain-containing protein (Phocaeicola dorei, UniProt B6VTE7); experiment: as §1; assay type: ADME; set-up: dose 2 uM; conditions: 2 µM
T5 sequence (B6VTE7 whole entry): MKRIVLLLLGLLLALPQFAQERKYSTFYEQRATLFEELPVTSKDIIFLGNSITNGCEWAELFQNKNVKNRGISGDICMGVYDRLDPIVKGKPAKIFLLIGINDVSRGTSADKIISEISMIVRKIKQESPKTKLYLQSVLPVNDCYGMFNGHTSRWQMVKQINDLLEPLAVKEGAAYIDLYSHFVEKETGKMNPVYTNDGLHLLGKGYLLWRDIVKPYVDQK

[4] = biological target: T6, SGNH hydrolase-type esterase domain-containing protein (Phocaeicola dorei, UniProt B6W1J1); experiment: as §1; assay type: ADME; set-up: dose 2 uM; conditions: 2 µM
T6 sequence (B6W1J1 whole entry): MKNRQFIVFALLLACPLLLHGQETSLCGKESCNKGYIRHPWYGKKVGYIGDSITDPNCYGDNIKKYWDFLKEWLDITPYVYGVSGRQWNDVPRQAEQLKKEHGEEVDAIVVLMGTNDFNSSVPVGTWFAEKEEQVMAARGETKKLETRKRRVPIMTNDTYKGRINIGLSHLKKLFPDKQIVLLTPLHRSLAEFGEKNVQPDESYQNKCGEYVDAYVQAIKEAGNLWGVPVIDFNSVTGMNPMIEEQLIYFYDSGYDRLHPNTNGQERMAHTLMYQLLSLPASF

[5] = biological target: T7, SGNH hydrolase-type esterase domain-containing protein (Phocaeicola dorei, UniProt B6W293); experiment: as §1; assay type: ADME; set-up: dose 2 uM; conditions: 2 µM
T7 sequence (B6W293 whole entry): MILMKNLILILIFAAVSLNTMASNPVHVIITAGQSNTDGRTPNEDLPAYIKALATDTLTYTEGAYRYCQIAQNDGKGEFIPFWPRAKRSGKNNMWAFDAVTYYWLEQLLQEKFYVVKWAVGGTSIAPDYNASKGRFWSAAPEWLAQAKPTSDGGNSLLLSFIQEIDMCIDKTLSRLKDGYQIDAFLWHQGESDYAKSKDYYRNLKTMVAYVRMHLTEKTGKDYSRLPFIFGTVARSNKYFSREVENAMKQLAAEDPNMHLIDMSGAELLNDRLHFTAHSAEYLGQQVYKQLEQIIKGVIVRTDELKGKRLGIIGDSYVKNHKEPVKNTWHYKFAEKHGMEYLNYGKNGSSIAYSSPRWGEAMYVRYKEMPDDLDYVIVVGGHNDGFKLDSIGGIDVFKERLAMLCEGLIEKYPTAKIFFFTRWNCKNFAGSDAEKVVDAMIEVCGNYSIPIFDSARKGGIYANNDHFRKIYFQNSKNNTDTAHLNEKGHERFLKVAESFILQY

[6] = biological target: T8, Steroid 5-alpha reductase C-terminal domain-containing protein (Phocaeicola dorei, UniProt B6W0N3); experiment: as §1; assay type: ADME; set-up: dose 2 uM; conditions: 2 µM
T8 sequence (B6W0N3 whole entry): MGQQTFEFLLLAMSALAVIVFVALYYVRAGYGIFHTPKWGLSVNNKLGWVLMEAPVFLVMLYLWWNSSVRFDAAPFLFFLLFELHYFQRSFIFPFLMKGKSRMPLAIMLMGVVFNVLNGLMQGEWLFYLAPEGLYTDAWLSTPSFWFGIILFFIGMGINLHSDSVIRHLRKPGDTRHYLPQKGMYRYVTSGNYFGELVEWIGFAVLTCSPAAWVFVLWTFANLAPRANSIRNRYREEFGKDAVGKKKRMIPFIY

[7] = The drug is tested on Bacteroides fragilis strain: T(B)9 for biotransformation. The drug concentrations were measured before and after a 12-h incubation by liquid-chromatography-coupled mass spectrometry (LC–MS); conditions: 2 µM
[8] = The drug is tested on Providencia alcalifaciens strain: DSM30120 for biotransformation. The drug concentrations were measured before and after a 12-h incubation by liquid-chromatography-coupled mass spectrometry (LC–MS); conditions: 2 µM
[9] = clostridioides difficile, 12 h, 2 µM
Description: The drug is tested on Clostridium difficile strain: 120 for biotransformation. The drug concentrations were measured before and after a 12-h incubation by liquid-chromatography-coupled mass spectrometry (LC–MS)

SMILES | Bacterial Biotransformation [1] | Bacterial Biotransformation (Esterase) | Bacterial Biotransformation [2] | Bacterial Biotransformation [6] | Bacterial Biotransformation [7] | Bacterial Biotransformation [8] | Bacterial Biotransformation [9] | also measured
C=CCc1ccccc1OCC(O)CNC(C)C (configuration not stated) [ALPRENOLOL] | Compound NOT metabolized |  |  |  |  |  |  | 
Nc1ccc(/N=N/c2ccccc2)c(N)n1 [PHENAZOPYRIDINE] |  | Compound NOT metabolized | Compound NOT metabolized | Compound NOT metabolized |  |  |  | Bacterial Biotransformation (Lipase): Compound NOT metabolized; Bacterial Biotransformation (GDSL-like protein): Compound NOT metabolized; Bacterial Biotransformation [3]: Compound NOT metabolized; Bacterial Biotransformation [4]: Compound NOT metabolized; Bacterial Biotransformation [5]: Compound NOT metabolized
O=C(O)COCCN1CCN(C(c2ccccc2)c2ccc(Cl)cc2)CC1 (configuration not stated) [CETIRIZINE] | Compound metabolized |  |  |  | Compound metabolized | Compound NOT metabolized |  | 
CC(=O)SCC(Cc1ccccc1)C(=O)NCC(=O)OCc1ccccc1 (configuration not stated) [RACECADOTRIL] |  | Compound NOT metabolized | Compound NOT metabolized | Compound NOT metabolized |  |  |  | Bacterial Biotransformation (Lipase): Compound metabolized; Bacterial Biotransformation (GDSL-like protein): Compound metabolized; Bacterial Biotransformation [3]: Compound NOT metabolized; Bacterial Biotransformation [4]: Compound NOT metabolized; Bacterial Biotransformation [5]: Compound NOT metabolized
CCN(CC)C(=O)/C(C#N)=C/c1cc(O)c(O)c([N+](=O)[O-])c1 [ENTACAPONE] |  | Compound NOT metabolized | Compound NOT metabolized | Compound NOT metabolized |  |  |  | Bacterial Biotransformation (Lipase): Compound NOT metabolized; Bacterial Biotransformation (GDSL-like protein): Compound NOT metabolized; Bacterial Biotransformation [3]: Compound NOT metabolized; Bacterial Biotransformation [4]: Compound NOT metabolized; Bacterial Biotransformation [5]: Compound NOT metabolized
CCS(=O)(=O)CCn1c([N+](=O)[O-])cnc1C [TINIDAZOLE] |  | Compound NOT metabolized | Compound metabolized | Compound NOT metabolized |  |  |  | Bacterial Biotransformation (Lipase): Compound NOT metabolized; Bacterial Biotransformation (GDSL-like protein): Compound NOT metabolized; Bacterial Biotransformation [3]: Compound NOT metabolized; Bacterial Biotransformation [4]: Compound NOT metabolized; Bacterial Biotransformation [5]: Compound NOT metabolized
CC(C)NCC(O)COc1ccc(CCOCC2CC2)cc1 (configuration not stated) [BETAXOLOL] |  |  |  |  | Compound NOT metabolized | Compound NOT metabolized | Compound NOT metabolized | 
COC(=O)[C@H](c1ccccc1Cl)N1CCc2sccc2C1.O=S(=O)(O)O [CLOPIDOGREL BISULFATE] | Compound NOT metabolized |  |  |  | Compound metabolized | Compound NOT metabolized |  | 
CN/C(=N/CCSCc1nc[nH]c1C)NC#N [CIMETIDINE] | Compound NOT metabolized |  |  |  | Compound metabolized | Compound NOT metabolized | Compound NOT metabolized | 
CCCC(=O)Nc1ccc(OCC(O)CNC(C)C)c(C(C)=O)c1 (configuration not stated) [ACEBUTOLOL] | Compound NOT metabolized |  |  |  |  |  | Compound NOT metabolized | 
CC(C)NCC(O)COc1ccc(CC(N)=O)cc1 (configuration not stated) [ATENOLOL] | Compound NOT metabolized |  |  |  |  | Compound NOT metabolized | Compound NOT metabolized | 
CN(C)CCC=C1c2ccccc2C=Cc2ccccc21 [CYCLOBENZAPRINE] |  |  |  |  | Compound NOT metabolized | Compound NOT metabolized |  | 
Clc1cccc(Cl)c1N=C1NCCN1 [CLONIDINE] | Compound NOT metabolized |  |  |  | Compound metabolized | Compound NOT metabolized | Compound NOT metabolized | 
CN1CCN(C2=Nc3cc(Cl)ccc3Nc3ccccc32)CC1 [CLOZAPINE] | Compound NOT metabolized |  |  |  |  |  |  | 
O=C(O)c1cc(/N=N/c2ccc(S(=O)(=O)Nc3ccccn3)cc2)ccc1O [SULFASALAZINE] |  | Compound NOT metabolized | Compound NOT metabolized | Compound NOT metabolized |  |  |  | Bacterial Biotransformation (Lipase): Compound NOT metabolized; Bacterial Biotransformation [3]: Compound NOT metabolized; Bacterial Biotransformation [4]: Compound NOT metabolized; Bacterial Biotransformation [5]: Compound NOT metabolized
c1ccc([C@H]2CN3CCSC3=N2)cc1 [LEVAMISOLE] |  |  |  |  | Compound metabolized |  | Compound metabolized | 
O=P1(N(CCCl)CCCl)NCCCO1 (configuration not stated) [CYCLOPHOSPHAMIDE ANHYDROUS] | Compound NOT metabolized |  |  |  | Compound NOT metabolized | Compound NOT metabolized |  | 
CC(=O)OCC(=O)[C@@]12N=C(C)O[C@@H]1C[C@H]1[C@@H]3CCC4=CC(=O)C=C[C@]4(C)[C@H]3[C@@H](O)C[C@@]12C [DEFLAZACORT] |  | Compound NOT metabolized | Compound NOT metabolized | Compound NOT metabolized |  |  |  | 
COc1ccccc1OCCNCC(O)COc1cccc2[nH]c3ccccc3c12 (configuration not stated) [CARVEDILOL] |  |  |  |  |  |  | Compound NOT metabolized | 
CCOC(=O)C1=C(C)NC(C)=C(C(=O)OC)C1c1cccc([N+](=O)[O-])c1 (configuration not stated) [NITRENDIPINE] |  | Compound NOT metabolized | Compound metabolized | Compound NOT metabolized |  |  |  | Bacterial Biotransformation (GDSL-like protein): Compound NOT metabolized; Bacterial Biotransformation [3]: Compound NOT metabolized; Bacterial Biotransformation [4]: Compound NOT metabolized; Bacterial Biotransformation [5]: Compound NOT metabolized
CCOc1cc(CC(=O)N[C@@H](CC(C)C)c2ccccc2N2CCCCC2)ccc1C(=O)O [REPAGLINIDE] |  |  |  |  |  |  | Compound NOT metabolized | 
